In US10385019B2, “Inhibitors of EGFR and methods of use thereof” (Dana-Farber Cancer Institute, Inc., priority 2015, dated 2019):
Read-outs that look alike come from different tables or passages of the source.

Experiments:
[1] = target: T1, L858R mutant EGFR (Homo sapiens, UniProt P00533, L858R); test: HTRF-based EGFR biochemical assay; details: relative to L858R/T790M and T790M mutants
T1 construct: Constructs spanning residues 696-1022 of the human EGFR; GST (cleaved yes); made in house; host or cells: Sf9 insect cells
Experimental: EGFR biochemical assays are carried out using a homogeneous time-resolved fluorescence (HTRF) assay. The reaction mixtures contain biotin-Lck-peptide substrate, wild type, or mutant EGFR enzyme in reaction buffer. Enzyme concentrations are adjusted to accommodate varying kinase activity and ATP concentrations. Compounds of the present disclosure are diluted into the assay mixture and IC50 values are determined using 12-point inhibition curves.
Constructs spanning residues 696-1022 of the human EGFR (including wild type and L858R, L858R/T790M, T790M, and T790M/V948R mutant sequences) were prepared in a GST-fusion format using the pTriEX system (Novagen) for expression in Sf9 insect cells essentially as described. […]
EGFR biochemical assays were carried out using a homogeneous time-resolved fluorescence (HTRF) assay as described previously. […] Five μL per well of the detection reagent containing 2.5 ng PT66K (Cis-bio) and 0.05 μg SAXL (Prozyme) were added, and the plates were then incubated at room temperature for 1 hour and read with an EnVision plate reader.

[2] = target: EGFR T790M/L858R Ba/F3 cell line (Homo sapiens, UniProt P00533, T790M/L858R, cells depend on it); test: Ba/F3 cell proliferation model; format: cell-based, murine; details: for Activity (% inhibition): combined with cetuximab (% cetuximab, 1.0 μM drug concentration with 1.0 μg/mL cetuximab)
Summary of the method: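 Murine Ba/F3 cells made IL-3-independent by retroviral EGFR L858R/T790M, selected in puromycin (2 μg/ml) and kept in RPMI 1640 with 10% FBS. Cells were exposed to serially diluted compound for 72 h, with growth read by MTS assay in six wells per point and ≥3 repeats. Sigmoidal dose-response non-linear regression gave the values.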

[3] = target: Del/T790M Ba/F3 cell line (Homo sapiens, UniProt P00533, DEL746-750/T790M, cells depend on it); test: Ba/F3 cell proliferation model; format: cell-based, murine
Excerpt: (§1) The selectivity between wild-type EGFR and EGFR containing one or more mutations as described herein can also be measured using cellular proliferation assays where cell proliferation is dependent on kinase activity. For example, murine Ba/F3 cells transfected with a suitable version of wild-type EGFR (such as VIII; containing a WT EGFR kinase domain), or Ba/F3 cells transfected with L858R/T790M, Del/T790M/L718Q, L858R/T790M/L718Q, L858R/T790M/C797S, Del/T790M/C797S, L858R/T790M/I941R, or Exon 19 deletion/T790M can be used.
(§2) Cell lines are plated in media. The compounds of the present disclosure are then serially diluted and transferred to the cells. Cell viability is measured via a luminescent readout. Data is analyzed by non-linear regression curve-fitting.
(§3) The EGFR mutant L858R, Del E746_A750, L858R/T790M, DelE746_A750/T790M, L858R/T790M/C797S and Del/T790M/C797S Ba/F3 cells have been previously described (Zhou, W., Ercan, D., Chen, L., Yun, C. H., Li, D., Capelletti, M., Cortot, A. B., Chirieac, L., Iacob, R. E., Padera, R., et al. “Novel mutant-selective EGFR kinase inhibitors against EGFR T790M,” Nature 462, (2009), 1070-1074). All cell lines were maintained in RPMI 1640 (Cellgro; Mediatech Inc., Herndon, Calif.) supplemented with 10% FBS 100 units/mL penicillin, 100 units/mL streptomycin, and 2 mM glutamine. L858R cells were maintained in ACL-4 media (Invitrogen, Carlsbad, Calif.) supplemented with 5% FBS, 100 units/mL penicillin, 100 units/mL streptomycin, and 2 mM glutamine. The EGFR I941R mutation was introduced via site directed mutagenesis using the Quick Change Site-Directed Mutagenesis kit (Stratagene; La Jolla, Calif.) according to the manufacturer's instructions. All constructs were confirmed by DNA sequencing. The constructs were shuttled into the retroviral vector JP 1540 using the BD Creator™ System (BD Biosciences). Ba/F3 cells were infected with retrovirus and according to standard protocols, as described previously (Zhou et al, Nature 2009). Stable clones were obtained by selection in puromycin (2 μg/ml).
(§4) Growth and inhibition of growth was assessed by MTS assay and was performed according to previously established methods (Zhou et al., Nature 2009). The MTS assay is a colorimetric method for determining the number of viable cells that is based on the bioreduction of MTS by cells to a formazan product that is soluble in cell culture medium and can be detected spectrophotometrically. Ba/F3 cells of different EGFR genotypes were exposed to treatment for 72 hours and the number of cells used per experiment determined empirically and has been previously established (Zhou et al., Nature 2009). All experimental points were set up in six wells and all experiments were repeated at least three times. […] The curves were fitted using a non-linear regression model with a sigmoidal dose response.

[4] = tested on: EGFR Parental Ba/F3 cell line; test: Ba/F3 cell proliferation model; format: cell-based, murine; details: Mus musculus, BaF3; compound alone
Excerpt: as §1, §2, §3, §4

[5] = compound alone, read-out: L858R/T790M IC50
[6] = read-out: L858R/T790M Cetuximab IC50, in combination with Cetuximab
[7] = compound alone, read-out: Del/T790M IC50
[8] = read-out: Del/T790M Cetuximab IC50, in combination with Cetuximab

Chain of Del/T790M Ba/F3 cell line (P00533 with tags, fused parts or gaps DEL746-750/T790M): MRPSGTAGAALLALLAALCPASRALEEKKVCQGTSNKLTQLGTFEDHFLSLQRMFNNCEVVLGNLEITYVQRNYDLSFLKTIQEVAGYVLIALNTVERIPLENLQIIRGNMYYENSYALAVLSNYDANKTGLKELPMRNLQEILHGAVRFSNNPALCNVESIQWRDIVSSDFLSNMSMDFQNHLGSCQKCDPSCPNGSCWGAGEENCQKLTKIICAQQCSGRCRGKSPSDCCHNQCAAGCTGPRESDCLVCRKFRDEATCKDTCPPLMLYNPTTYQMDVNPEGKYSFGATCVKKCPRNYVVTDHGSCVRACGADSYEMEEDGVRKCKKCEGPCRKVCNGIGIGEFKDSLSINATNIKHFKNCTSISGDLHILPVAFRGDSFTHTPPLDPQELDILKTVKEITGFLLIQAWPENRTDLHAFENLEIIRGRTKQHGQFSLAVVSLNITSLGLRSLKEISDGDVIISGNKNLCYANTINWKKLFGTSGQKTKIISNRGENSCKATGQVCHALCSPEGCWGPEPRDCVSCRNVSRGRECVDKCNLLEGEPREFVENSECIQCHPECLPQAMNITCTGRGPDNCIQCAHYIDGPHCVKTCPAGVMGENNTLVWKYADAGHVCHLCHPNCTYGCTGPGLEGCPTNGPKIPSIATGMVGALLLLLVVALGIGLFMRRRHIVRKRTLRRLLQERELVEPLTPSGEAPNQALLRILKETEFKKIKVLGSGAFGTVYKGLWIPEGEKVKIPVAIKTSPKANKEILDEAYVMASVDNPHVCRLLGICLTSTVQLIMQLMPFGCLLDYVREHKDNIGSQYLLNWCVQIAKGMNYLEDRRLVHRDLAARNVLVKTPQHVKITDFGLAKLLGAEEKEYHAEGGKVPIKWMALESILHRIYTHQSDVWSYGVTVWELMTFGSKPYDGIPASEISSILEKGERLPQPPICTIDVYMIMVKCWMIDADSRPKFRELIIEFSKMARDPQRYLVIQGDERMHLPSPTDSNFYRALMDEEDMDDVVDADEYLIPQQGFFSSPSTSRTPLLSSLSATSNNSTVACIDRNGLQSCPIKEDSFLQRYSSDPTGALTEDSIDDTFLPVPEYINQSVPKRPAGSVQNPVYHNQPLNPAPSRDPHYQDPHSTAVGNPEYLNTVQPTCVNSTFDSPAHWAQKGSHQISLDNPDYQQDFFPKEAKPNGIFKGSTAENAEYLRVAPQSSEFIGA
Chain of EGFR T790M/L858R Ba/F3 cell line (P00533 whole entry T790M/L858R): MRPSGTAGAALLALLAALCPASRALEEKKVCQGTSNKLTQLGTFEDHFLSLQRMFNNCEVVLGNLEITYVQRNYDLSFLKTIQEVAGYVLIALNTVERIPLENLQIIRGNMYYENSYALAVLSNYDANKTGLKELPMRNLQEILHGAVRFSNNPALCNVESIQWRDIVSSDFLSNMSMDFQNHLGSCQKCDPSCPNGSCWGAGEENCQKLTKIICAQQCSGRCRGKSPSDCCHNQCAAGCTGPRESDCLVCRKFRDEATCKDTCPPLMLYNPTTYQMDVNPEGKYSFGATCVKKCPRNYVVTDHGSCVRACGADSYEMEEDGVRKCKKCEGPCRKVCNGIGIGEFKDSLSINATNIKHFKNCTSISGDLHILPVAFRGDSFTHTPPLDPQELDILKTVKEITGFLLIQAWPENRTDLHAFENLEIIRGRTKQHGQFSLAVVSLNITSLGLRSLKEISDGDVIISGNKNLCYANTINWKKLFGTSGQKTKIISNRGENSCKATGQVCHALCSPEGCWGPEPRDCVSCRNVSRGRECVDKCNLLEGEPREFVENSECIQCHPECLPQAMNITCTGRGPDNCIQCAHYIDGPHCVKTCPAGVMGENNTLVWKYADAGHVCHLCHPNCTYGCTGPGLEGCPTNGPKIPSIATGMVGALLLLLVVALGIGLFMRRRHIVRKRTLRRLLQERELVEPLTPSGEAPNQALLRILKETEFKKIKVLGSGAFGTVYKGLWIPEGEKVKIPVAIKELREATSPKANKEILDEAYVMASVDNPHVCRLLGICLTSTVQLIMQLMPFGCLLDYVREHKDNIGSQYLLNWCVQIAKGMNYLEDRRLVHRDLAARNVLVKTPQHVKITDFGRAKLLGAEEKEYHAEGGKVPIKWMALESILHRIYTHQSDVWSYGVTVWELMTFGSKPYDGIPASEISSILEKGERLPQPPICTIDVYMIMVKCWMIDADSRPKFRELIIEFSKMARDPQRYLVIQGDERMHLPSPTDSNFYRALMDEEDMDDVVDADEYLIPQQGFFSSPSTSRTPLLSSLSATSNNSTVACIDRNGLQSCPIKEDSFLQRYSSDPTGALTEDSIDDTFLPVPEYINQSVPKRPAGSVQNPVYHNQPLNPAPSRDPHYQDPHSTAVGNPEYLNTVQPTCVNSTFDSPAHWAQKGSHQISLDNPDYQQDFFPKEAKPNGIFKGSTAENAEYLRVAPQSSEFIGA
T1 sequence (P00533 696-1022 L858R): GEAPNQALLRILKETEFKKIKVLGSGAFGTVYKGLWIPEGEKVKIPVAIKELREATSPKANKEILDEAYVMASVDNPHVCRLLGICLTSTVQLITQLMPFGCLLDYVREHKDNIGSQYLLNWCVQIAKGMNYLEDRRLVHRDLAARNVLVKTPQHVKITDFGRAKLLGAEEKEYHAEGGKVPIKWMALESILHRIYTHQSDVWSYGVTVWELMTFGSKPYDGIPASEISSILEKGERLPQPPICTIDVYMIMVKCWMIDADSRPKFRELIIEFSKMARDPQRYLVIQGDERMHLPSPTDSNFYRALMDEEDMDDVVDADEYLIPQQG

| SMILES | decreased potency against L858R mutant EGFR [1] | Activity (% inhibition) [2] | GI50 [2, 5] [nM] | GI50 [2, 6] [nM] | GI50 [3, 7] [nM] | GI50 [3, 8] [nM] | IC50 [4] [nM] |
| --- | --- | --- | --- | --- | --- | --- | --- |
| O=C(Nc1nccs1)C(c1ccccc1)N1Cc2ccccc2C1=O (stereo not shown) [Compound A1] | approximately 2 fold |  |  |  |  |  |  |
| O=C(Nc1nccs1)[C@@H](c1ccccc1)N1Cc2ccc(-c3ccc(N4CCNCC4)cc3F)cc2C1=O [Compound I-120, (R)-2-(6-(2-fluoro-4-(piperazin-1-yl)phenyl)-1-oxoisoindolin-2-yl)-2-phenyl-N-(thiazol-2-yl)acetamide] |  | D (a % inhibition of between about 0% to about 25%) | 1000 to 10000 | < 500 | 1000 to 10000 | 1000 to 10000 | 1000 to 10000 |
| O=C(Nc1nccs1)[C@@H](c1ccccc1)N1Cc2ccc(-c3ccc(CN4CCNCC4)cc3)cc2C1=O [Compound I-121, (R)-2-(1-oxo-6-(4-(piperazin-1-ylmethyl)phenyl)isoindolin-2-yl)-2-phenyl-N-(thiazol-2-yl)acetamide] |  | D (a % inhibition of between about 0% to about 25%) | 1000 to 10000 | < 500 | 1000 to 10000 | 1000 to 10000 | 1000 to 10000 |
| O=C(Nc1nccs1)C(c1cccc(F)c1)N1Cc2ccc(-c3ccc4[nH]ccc4c3)cc2C1=O (stereo not shown) [Compound I-122, 2-(6-(1H-indol-5-yl)-1-oxoisoindolin-2-yl)-2-(3-fluorophenyl)-N-(thiazol-2-yl)acetamide] |  | D (a % inhibition of between about 0% to about 25%) | 1000 to 10000 | < 500 | > 10000 | > 10000 | 1000 to 10000 |
